Measurements published in patent publication US20260028390A1, “ALPHA1-ANTITRYPSIN FOR USE IN THE TREATMENT OF DISEASES OR DISORDERS OF THE NERVOUS SYSTEM SUCH AS CHRONIC INFLAMMATORY DEMYELINATING POLYNEUROPATHY” (Ageronix SA, priority 2022, published 2026).

Tested on: HMC3-MHCII^Luc cells
Test: RNAseq differential gene expression / GSEA in AAT-treated resting and IFNγ-activated microglia
Type: cell-based, human
Procedure: • A) Human microglial HMC3-MHCII^Luc cells were plated at day 0, presented IFNγ at day 1 until day 2 and measurement of the luciferase activity and cell viability were done at day 4. • B) AATs were applied from day 0 to day 4 on HMC3-MHCII^Luc cells. Activation was measured by the activity of MHCII-driven luciferase and represented as percentage of IFNγ control for all conditions. All conditions were performed in triplicates, error bars represent standard deviation. • C) Bulk RNA extraction was performed on the same HMC3-MHCII^Luc cultures. Quality control (QC) were applied to RNA before sequencing. QC of the sequencing was done prior to mapping on the human genome. Mapped reads were counted, and differential gene expression was measured between the conditions (see Table 1-10). (FIGS. 3A, 3B and 3C)
RNAseq data from plasma-derived and recombinant AATs were pooled, normalized and analyzed through Gene Set Enrichment Analysis (GSEA) (https://www.gsea-msigdb.org/gsea/index.jsp; Subramanian, A., et al. Proc. Natl. Acad. Sci. USA, 102 (43): 15545-15550, 2005.). […] Importantly, both the IFNγ and inflammatory responses were dampened by AAT. However, the downregulation of the inflammatory response genes in (C) was just under significance.
Tables of genes related to antigen presentation (Table 1), cytokine signaling (Table 2), interferon signaling (Table 3) and complement activation (Table 4). Inflammatory top gene (FC>2; p-value<0.05; left column), were defined by differential expression between untreated and IFNγ-treated cells (inflammation; middle column).
HMC3-MHCII^Luc and HMC3-MHCII^Luc; Ubi^AAT (endogenous AAT) cell lines were seeded into 96-well plates at a density of approximately 2500 cells/well. HMC3-MHCII^Luc cell line was plated and was added plasma-derived AAT and recombinant AATs (produced in CHO cells, AAT 1 and AAT 2) 3h later and at ranged concentration (1; 10 or 25 μM). 24h after, still in the presence of exogenous or endogenous AAT, microglial activation was induced with a 24h-long IFNγ presentation (10 ng/ml). IFNγ was then removed and both HMC3-MHCII^Luc and HMC3-MHCII^Luc; Ubi^AAT cells were cultured for 48h in exogenous or endogenous presence of AAT before cell cultures were beeing assessed for cell viability and activation (See FIGS. 3A, 3B, 3C and 4A,4B, 4C).
RNA samples from plasma-derived AAT and recombinant AAT Nr. 2 were checked for quality (2100 Bioanalyzer, Agilent) and libraries prepared with Truseq RNA Library Kit (Illumina, RS-122-2001). Libraries were sequenced (HiSeq 4000, Illumina) controlled for the quality of sequencing (FastQC), mapped on the human genome (STAR v.2.7.0f; UCSC hg38), reads were counted (HTSeq v0.9.1) and the differential expression analysis was performed with the R/Bioconductor package (edgeR 1.30.1.).

[1] = Inflammation + AAT, AD risk gene
[2] = Inflammation + AAT, MCT*/PN risk gene
[3] = Inflammation + AAT, MS risk gene
[4] = Inflammation + AAT, PD risk gene
[5] = Regulated in AAT (resting condition), antigen presentation
[6] = Regulated in AAT (resting condition), cytokine signalling
[7] = Regulated in AAT (resting condition), interferon signaling
[8] = head prints AAT (right block), GBS risk gene
[9] = inflammation + AAT, antigen presentation
[10] = inflammation + AAT, complement activation
[11] = inflammation + AAT, cytokine signalling
[12] = inflammation + AAT, interferon signaling

alpha1-antitrypsin (AAT) protein
IGFBP2 expression FC (FC inflammation + AAT, M2 gene): 1.34
IL1R1 expression FC (FC inflammation + AAT, M2 gene): 1.18
ITGA11 expression FC (FC inflammation + AAT, M2 gene): 1.54
KANK2 expression FC (FC inflammation + AAT, M2 gene): 1.25
KDM2B expression FC (FC inflammation + AAT, M2 gene): 1.17
KIAA1549L expression FC (FC inflammation + AAT, M2 gene): 1.44
LDHA expression FC (FC inflammation + AAT, M2 gene): 1.21
LOXL2 expression FC (FC inflammation + AAT, M2 gene): 1.25
MBOAT7 expression FC (FC inflammation + AAT, M2 gene): 1.37
METRN expression FC (FC inflammation + AAT, M2 gene): 1.64
MIF expression FC (FC inflammation + AAT, M2 gene): 1.72
MMP1 expression FC (FC inflammation + AAT, M2 gene): 2.39
MXRA8 expression FC (FC inflammation + AAT, M2 gene): 1.49
OLFML2B expression FC (FC inflammation + AAT, M2 gene): 1.44
PAPPA expression FC (FC inflammation + AAT, M2 gene): 1.31
PLEC expression FC (FC inflammation + AAT, M2 gene): 1.54
PLLP expression FC (FC inflammation + AAT, M2 gene): 1.46
PREX1 expression FC (FC inflammation + AAT, M2 gene): 1.28
PRSS23 expression FC (FC inflammation + AAT, M2 gene): 1.16
PTPRS expression FC (FC inflammation + AAT, M2 gene): 1.23
RASAL1 expression FC (FC inflammation + AAT, M2 gene): 1.45
SEMA3B expression FC (FC inflammation + AAT, M2 gene): 1.39
SERPINH1 expression FC (FC inflammation + AAT, M2 gene): 1.20
SH3PXD2B expression FC (FC inflammation + AAT, M2 gene): 1.19
SLC16A3 expression FC (FC inflammation + AAT, M2 gene): 1.65
STC2 expression FC (FC inflammation + AAT, M2 gene): 1.32
TBCD expression FC (FC inflammation + AAT, M2 gene): 1.26
TCEAL2 expression FC (FC inflammation + AAT, M2 gene): 1.30
TGFB1I1 expression FC (FC inflammation + AAT, M2 gene): 1.26
TGFBI expression FC (FC inflammation + AAT, M2 gene): 1.18
THBS1 expression FC (FC inflammation + AAT, M2 gene): 1.34
TNFRSF1B expression FC (FC inflammation + AAT, M2 gene): 1.23
ZIC2 expression FC (FC inflammation + AAT, M2 gene): 2.77
ZNF319 expression FC (FC inflammation + AAT, M2 gene): 1.25
ABCA7 expression FC [1]: 1.36
APOE expression FC [1]: 1.55
BIN1 expression FC [1]: 1.43
PICALM expression FC [1]: −1.29
PSEN2 expression FC [1]: 1.28
TREM2 expression FC [1]: 1.47
CCT5 expression FC [2]: −1.13
DNAJB2* expression FC [2]: 1.20
DST expression FC [2]: 1.30
GARS* expression FC [2]: −1.24
GDAP1* expression FC [2]: −1.24
HSPB1* expression FC [2]: 1.56
IGHMBP2* expression FC [2]: 1.21
INF2 expression FC [2]: 1.35
KARS* expression FC [2]: −1.13
LMNA* expression FC [2]: 1.39
MED25* expression FC [2]: 1.38
NDRG1* expression FC [2]: 1.30
SCN9A expression FC [2]: −1.66
SEPT9 expression FC [2]: 1.29
TFG* expression FC [2]: −1.19
TUBB3 expression FC [2]: 1.44
TRPV4* expression FC (Inflammation + AAT, MCT*/PN risk gene, first TRPV4* line): 1.72
TRPV4* expression FC (Inflammation + AAT, MCT*/PN risk gene, second TRPV4* line): 1.40
AGAP2 expression FC [3]: 1.45
CYP24A1 expression FC [3]: 1.34
DKKL1 expression FC [3]: 2.12
HLA-A expression FC [3]: 1.57
HLA-DRB1 expression FC [3]: 1.51
MPHOSPH9 expression FC [3]: −1.19
NFKBIZ expression FC [3]: −1.37
SLC30A7 expression FC [3]: −1.56
ZMIZ1 expression FC [3]: 1.47
ATP13A2 expression FC [4]: 1.49
DNAJC6 expression FC [4]: −1.12
GBA expression FC [4]: 1.15
LRP10 expression FC [4]: 1.23
PINK1 expression FC [4]: 1.20
PLA2G6 expression FC [4]: 1.37
SYNJ1 expression FC [4]: −1.23
UCHL1 expression FC [4]: −1.10
NFATC1 expression FC [5]: 1.44
TRAF6 expression FC [5]: −1.26
PLAU expression FC (Regulated in AAT (resting condition), complement activation): −1.27
BIRC2 expression FC [6]: −1.53
CEBPG expression FC [6]: −1.31
MYD88 expression FC [6]: −1.35
RASGRF2 expression FC [6]: −1.45
RIPK2 expression FC [6]: −1.30
SPTBN1 expression FC [6]: −1.21
STAT1 expression FC [6]: −1.47
TM7SF3 expression FC [6]: −1.18
TNFSF9 expression FC [6]: 1.26
TRAF6 expression FC [6]: −1.26
IRF2 expression FC [7]: −1.17
STAT1 expression FC [7]: −1.47
FOS expression FC AAT [8]: −1.54
GUK1 expression FC AAT [8]: 1.31
LY96 expression FC AAT [8]: −2.31
MARCKS expression FC AAT [8]: −1.84
NFIL3 expression FC AAT [8]: −1.22
ZNF12 expression FC AAT [8]: −1.23
genes related to the unfolded protein response (UPR) pathway and cell-survival (GSEA) (human microglial cells, AAT treatment): upregulation
CALR expression FC [9]: 1.35
CTSA expression FC [9]: 1.17
CTSD expression FC [9]: 1.47
HLA-DOB expression FC [9]: −4.49
HLA-DPB1 expression FC [9]: 1.31
HLA-DRA expression FC [9]: −2.22
IL1B expression FC [9]: −2.07
MRC2 expression FC [9]: 1.47
NFATC2 expression FC [9]: 1.63
PSMB9 expression FC [9]: −1.23
PYCARD expression FC [9]: 2.20
SOCS3 expression FC [9]: 1.20
TAPBP expression FC [9]: 1.23
C3AR1 expression FC [10]: −1.50
ITGAX expression FC [10]: 1.41
PLAUR expression FC [10]: 1.32
SERPINB2 expression FC [10]: −4.63
ANXA1 expression FC [11]: −1.33
ATF3 expression FC [11]: −1.26
CX3CL1 expression FC [11]: 1.61
CXCL1 expression FC [11]: −2.09
CXCL5 expression FC [11]: −2.15
DUSP6 expression FC [11]: −1.26
FGF2 expression FC [11]: −1.57
FSCN1 expression FC [11]: 1.48
HBEGF expression FC [11]: −1.30
IL1B expression FC [11]: −2.07
IL1R1 expression FC [11]: 1.18
IL18 expression FC [11]: −1.75
IL27RA expression FC [11]: 1.36
IL411 expression FC [11]: 1.95
JAK3 expression FC [11]: 1.43
MAP2K2 expression FC [11]: 1.51
MAP2K3 expression FC [11]: 1.37
MAPK11 expression FC [11]: 1.44
MAPK12 expression FC [11]: 1.33
MAPK13 expression FC [11]: 1.23
NFKBIZ expression FC [11]: −1.37
PSMB9 expression FC [11]: −1.23
RASAL1 expression FC [11]: 1.52
SOCS3 expression FC [11]: 1.20
STAT5A expression FC [11]: 1.45
TNFRSF9 expression FC [11]: −2.35
TRAF2 expression FC [11]: 1.42
CD44 expression FC [12]: 1.14
FLNB expression FC [12]: −1.20
HLA-DPB1 expression FC [12]: 1.31
HLA-DRA expression FC [12]: −2.22
IFIT1 expression FC [12]: −1.78
IFNAR1 expression FC [12]: −1.63
IRF3 expression FC [12]: 1.56
MX1 expression FC [12]: −2.00
MX2 expression FC [12]: −2.14
SOCS3 expression FC [12]: 1.20
USP18 expression FC [12]: −1.76
inflammatory top genes found affected by AAT treatment (top genes FC>2, p-value<0.05, significantly and oppositely regulated): ~35%
